Experimental data from ChEMBL document CHEMBL1221343, “Caelestines A-D, brominated quinolinecarboxylic acids from the Australian ascidian Aplidium caelestis” (J Nat Prod, 2010).
Activity calls are given as the source filed them. No cut-off for these calls is given here.

Legend:
Staphylococcus aureus [1] = assay: Antimicrobial activity against multidrug-resistant Staphylococcus aureus ATCC 43300 at 0.1 to 10 mM after 20 hrs by CLSI broth microdilution method; assay type: functional, organism-based
MM96L = assay: Cytotoxicity against human MM96L cells at 100 uM; assay type: functional
[2] = Cytotoxicity against human NFF cells at 100 uM; assay type: cell-based; settings: read-out: INH
Candida albicans = assay: Antimicrobial activity against Candida albicans ATCC 10231 at 0.1 to 10 mM after 20 hrs by CLSI broth microdilution method; assay type: functional, organism-based
MCF7 = assay: Cytotoxicity against human MCF7 cells at 100 uM; assay type: functional
Staphylococcus aureus [3] = assay: Antimicrobial activity against methicillin-sensitive Staphylococcus aureus ATCC 25923 at 0.1 to 10 mM after 20 hrs by CLSI broth microdilution method; assay type: functional, organism-based
Enterococcus faecalis = assay: Antimicrobial activity against Enterococcus faecalis ATCC 19433 at 0.1 to 10 mM after 20 hrs by CLSI broth microdilution method; assay type: functional, organism-based
Escherichia coli = assay: Antimicrobial activity against Escherichia coli ATCC 25922 at 0.1 to 10 mM after 20 hrs by CLSI broth microdilution method; assay type: functional, organism-based
Pseudomonas aeruginosa = assay: Antimicrobial activity against Pseudomonas aeruginosa NCTC 10662 at 0.1 to 10 mM after 20 hrs by CLSI broth microdilution method; assay type: functional, organism-based

Row | Structure (SMILES) | Activity (Staphylococcus aureus [1]) | inhibition at 100 µM (MM96L) | cytotoxicity at 100 µM [2] | Activity (Candida albicans) | inhibition at 100 µM (MCF7) | Activity (Staphylococcus aureus [3]) | Activity (Enterococcus faecalis) | Activity (Escherichia coli) | Activity (Pseudomonas aeruginosa)
1 | O=C(O)c1cc(=O)c2cc(Br)c(Br)cc2[nH]1 | inactive | 69% | 66% | inactive | 49% | inactive | inactive | inactive | inactive
2 | COc1cc(Br)cc2c(=O)cc(C(=O)O)[nH]c12 | inactive | 54% | 58% | inactive | 40% | inactive | inactive | inactive | inactive
3 | COc1c(Br)c(Br)cc2c(=O)cc(C(=O)O)[nH]c12 | inactive | 52% | 68% | inactive | 38% | inactive | inactive | inactive | inactive
4 | O=C(O)c1cc(O)c2ccc(Br)cc2n1 | inactive | 62% | 57% | inactive | 39% | inactive | inactive | inactive | inactive
